Tested on: A498 cells
Experiment: A498 human RCC tumor xenograft model
Assay type: in vivo, mouse
Conditions: for tumor growth, single agent: 10 mg/kg IP 3 times per week, vs Fc
Description: A498 cells, a VHL-deficient human RCC cell line (see Iliopoulos et al., Nature Medicine 1995; 1:822-6), was obtained from the American Type Culture Collection, and cultured in Eagle's minimal essential medium. Media was supplemented with 2 mmol/L L-glutamine, 10% FCS, and 1% streptomycin (50 μg/mL), and cells were cultured at 37° C. with 5% CO2. […] cells were harvested from subconfluent cultures by a brief exposure to 0.25% trypsin and 0.02% EDTA. Trypsinization was stopped with medium containing 10% fetal bovine serum, and the cells were washed once in serum-free medium and resuspended in PBS. Only suspensions consisting of single cells with >90% viability were used for the injections.
To establish human RCC xenografts, A498 tumor cells were injected subcutaneously (1×10^7 cells) into the flanks of 6- to 8-week-old female athymic nude/beige mice (Charles River Laboratories) that were of 20 g average body weight. Tumors developed in >80% of the mice and were usually visible within a few days of implantation. Mice were treated with Fc or ALK-Fc when the tumors had grown to a diameter of 12 mm. ALK-Fc (10 mg/kg) was administered 3 times per week intraperitoneally. Tumors were measured daily while mice were on treatment.
A498 cell culture and xenograft establishment was performed as described in Example 14. Mice were treated with vehicle plus Fc, sunitinib plus Fc, vehicle plus ALK-Fc, or subitinib plus ALK-Fc when the tumors had grown to a diameter of 12 mm. Sunitinib (53.6 mg/kg; Pfizer) was administered 6 of 7 days per week by gavage beginning. ALK1-Fc (10 mg/kg) was administered 3 times per week intraperitoneally. Tumors were measured daily while mice were on treatment.

hALK1-Fc: extracellular domain of human ALK1 (amino acids 22-120) fused to a human IgG1 Fc with a minimal linker (SEQ ID NO:3/14)
tumor growth, single agent: inhibit tumor growth as a single agent | tumor growth, single agent (listed as ALK-Fc): dramatically slowed tumor growth | effect on tumor growth inhibiting activity of sunitinib (administered in combination with sunitinib): substantially increased the tumor growth inhibiting activity of sunitinib | tumor growth (combination study, sunitinib 53.6 mg/kg gavage, ALK1-Fc 10 mg/kg IP): slowed tumor growth
